The text below walks through data of patent publication US7494998B2, “Benzisoxazole piperazine compounds and methods of use thereof” (Hypnion, Inc., priority 2005, dated 2009).

The subject of one experiment is male Wistar rats. The experiment can be described thus: Sleep-wakefulness monitoring (EEG/EMG, SCORE-2004) in rats after oral treatment at CT-18. The experiment is classed as in vivo, rat. The conditions noted are these: for MAXIMUM NREM SLEEP CUMULATION 10 mg/kg / LONGEST UNINTERRUPTED SLEEP BOUT 10 mg/kg: 10 mg/kg oral at CT-18; for MAXIMUM NREM SLEEP CUMULATION 30 mg/kg / LONGEST UNINTERRUPTED SLEEP BOUT 30 mg/kg: 30 mg/kg oral at CT-18; for MAXIMUM NREM SLEEP CUMULATION 3 mg/kg / LONGEST UNINTERRUPTED SLEEP BOUT 3 mg/kg: 3 mg/kg oral at CT-18. On the procedure: Sleep-wakefulness, locomotor activity and body temperature are monitored in male Wistar rats treated with a test compound (i.e., benzisoxazole analog) initially at a concentration of 10 mg/kg. Higher and lower doses are assayed for select compounds (e.g., as high as 45 mg/kg, and as low as necessary to establish a no-effect dose). Treatments are administered at CT-18, the peak of the activity dominated period (6 hours after lights-off), and produced soporific (sleep-inducing) effects characterized by increased non-REM sleep time, increased sleep continuity, but without evidence of REM sleep inhibition or rebound insomnia.
Sleep-wakefulness, locomotor activity and body temperature were monitored in vivo with various compounds of the invention. Adult, male Wistar rats (250 g at time of surgery, Charles River Laboratories, Wilmington Mass.) were anesthetized (2% isoflourane in medical grade oxygen) and surgically prepared with a cranial implant to permit chronic electro-encephalogram (EEG) and electromyogram (EMG) recording. Body temperature and locomotor activity were monitored via a miniature transmitter (Mini-Mitter, Bend, Oreg.) surgically placed in the abdomen. The cranial implant consisted of stainless steel screws (two frontal [+3.2 AP from bregma, ±2.0 ML] and two occipital [−6.9 AP, ±5.5 ML]) for EEG recording. Two Teflon®-coated stainless steel wires were positioned under the nuchal trapezoid muscles for EMG recording. All leads were soldered to a miniature connector prior to surgery, and gas sterilized in ethylene oxide. The implant assembly was affixed to the skull with dental acrylic. A minimum of three weeks was allowed for surgical recovery.
Each rat was permanently housed in its own individual recording cage located within separate, ventilated compartments of custom-designed stainless steel cabinets. Each cage was enhanced with a filter-top riser and low-torque swivel-commutator. Food and water were available ad libitum. A 24-hr light-dark cycle (12 hours light, 12 hours dark) was maintained throughout the study. Animals were undisturbed for at least 48 hours before and after treatments.
Sleep and wakefulness were determined using “SCORE-2004™” (Hypnion, Worcester, Mass.)—an internet-based sleep-wake and physiological monitoring system. The system monitored amplified EEG (bandpass 1-30 Hz), integrated EMG (bandpass 10-100 Hz), body temperature and non-specific locomotor activity (LMA) via telemetry, and drinking activity, continuously and simultaneously. Arousal states were classified on-line as non-REM (NREM) sleep, REM sleep, wake, or theta-dominated wake every 10 seconds. Total drinking and locomotor activity counts, and body temperature were quantitiated and recorded each minute, using EEG feature extraction and pattern-matching algorithms. […] The classification algorithm used individually-taught EEG-arousal-state templates, plus EMG criteria to differentiate REM sleep from theta-dominated wakefulness, plus behavior-dependent contextual rules (e.g., if the animal was drinking, it is awake). Drinking and locomotor activity intensity (LMA) were recorded every 10 seconds, while body temperature was recorded each minute. Locomotor activity was detected by a telemetry receiver (Mini-Mitter) beneath the cage. Telemetry measures (LMA and body temperature) were not part of the scoring algorithm; thus, sleep-scoring and telemetry data were independent measures.
Compounds were administered at CT-18, the peak of the activity-dominated period, sufficient time was allowed to view the time course of the treatment effect before lights-on (6 hours post-treatment). Compounds were suspended in sterile 0.25% or 0.5% methylcellulose (1-2 ml/kg). Treatments were administered orally as a bolus.
A parallel group study design was employed. […]

The target of experiment [1] is T1, human recombinant M1 expressed in CHO cells (Homo sapiens, UniProt P11229).
T1 construct: expressed in transfected cells; host or cells: CHO cells
T1 sequence (P11229 1-460): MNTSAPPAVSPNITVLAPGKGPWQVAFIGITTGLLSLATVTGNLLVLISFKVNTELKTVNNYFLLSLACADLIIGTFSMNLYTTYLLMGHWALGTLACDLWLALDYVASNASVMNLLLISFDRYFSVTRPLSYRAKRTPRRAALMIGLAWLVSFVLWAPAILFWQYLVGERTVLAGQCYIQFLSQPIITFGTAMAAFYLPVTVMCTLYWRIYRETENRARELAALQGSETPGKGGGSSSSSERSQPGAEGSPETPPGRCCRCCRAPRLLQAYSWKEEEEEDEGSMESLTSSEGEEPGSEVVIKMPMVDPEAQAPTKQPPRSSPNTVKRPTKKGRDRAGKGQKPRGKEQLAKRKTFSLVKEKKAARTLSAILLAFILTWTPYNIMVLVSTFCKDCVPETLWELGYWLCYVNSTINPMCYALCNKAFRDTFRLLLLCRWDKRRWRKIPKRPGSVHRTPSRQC
The conditions noted are these: reference compounds of the M1 assay; read-out: Ki (M1 binding assay, reference compounds); cited from earlier work.

Setting [2] is: cumulative nonREM sleep defined in minutes, in min.
The mark [3] stands for this setting: sleep bout length defined in minutes.

As to `CC(C)(CN1CCN(c2noc3ccccc23)CC1)C(=O)NS(C)(=O)=O` [Compound 3], in the experiment with male Wistar rats (setting [2]), the “MAXIMUM NREM SLEEP CUMULATION 10 mg/kg” value worked out at 25 and the “MAXIMUM NREM SLEEP CUMULATION 30 mg/kg” value is reported as 27. In addition, in the experiment with male Wistar rats (setting [3]), the “LONGEST UNINTERRUPTED SLEEP BOUT 10 mg/kg” value is 5.2 and the “LONGEST UNINTERRUPTED SLEEP BOUT 30 mg/kg” value worked out at 12.3.
On the same counts, the results for `CC(C)(CN1CCN(c2noc3ccc(F)cc23)CC1)C(=O)O` [Compound 6] are 18, 26, 9.8 and 13.5.
Consider `C[N+]1(C)CCC(OC(=O)C(c2ccccc2)c2ccccc2)CC1` [4-DAMP methiodide], for which the inhibition constant Ki in experiment [1] was 0.27 nM.
Consider `CC(C)(CN1CCN(c2noc3ccccc23)CC1)C(=O)O` [Compound 1], for which the “MAXIMUM NREM SLEEP CUMULATION 1 mg/kg” value in the experiment with male Wistar rats (1 mg/kg oral at CT-18, cumulative nonREM sleep defined in minutes, in min) was found to be 20. Also, the “LONGEST UNINTERRUPTED SLEEP BOUT 1 mg/kg” value in the experiment on male Wistar rats (1 mg/kg oral at CT-18, sleep bout length defined in minutes) is listed as 6.0. Also, in the experiment on male Wistar rats (setting [2]), the “MAXIMUM NREM SLEEP CUMULATION 3 mg/kg” value is on record as 16, the “MAXIMUM NREM SLEEP CUMULATION 10 mg/kg” value came to 26 and the “MAXIMUM NREM SLEEP CUMULATION 30 mg/kg” value stood at 50. Moreover, in the experiment on male Wistar rats (setting [3]), the “LONGEST UNINTERRUPTED SLEEP BOUT 3 mg/kg” value stood at 9.3, the “LONGEST UNINTERRUPTED SLEEP BOUT 10 mg/kg” value was found to be 14.4 and the “LONGEST UNINTERRUPTED SLEEP BOUT 30 mg/kg” value was found to be 16.2.
Take `Cc1ccc2c(N3CCN(CC(C)(C)C(=O)O)CC3)noc2c1` [Compound 9]: in the experiment on male Wistar rats (setting [2]), the “MAXIMUM NREM SLEEP CUMULATION 3 mg/kg” value worked out at 24 and the “MAXIMUM NREM SLEEP CUMULATION 10 mg/kg” value is recorded as 29. Besides, in the experiment with male Wistar rats (setting [3]), the “LONGEST UNINTERRUPTED SLEEP BOUT 3 mg/kg” value was found to be 13.6 and the “LONGEST UNINTERRUPTED SLEEP BOUT 10 mg/kg” value is 12.9.
For `Cc1ccc2onc(N3CCN(CC(C)(C)C(=O)O)CC3)c2c1` [Compound 8], in the experiment on male Wistar rats (setting [2]), the “MAXIMUM NREM SLEEP CUMULATION 3 mg/kg” value was 15, the “MAXIMUM NREM SLEEP CUMULATION 10 mg/kg” value came out at 29 and the “MAXIMUM NREM SLEEP CUMULATION 30 mg/kg” value was found to be 37. In the experiment on male Wistar rats (setting [3]), the “LONGEST UNINTERRUPTED SLEEP BOUT 3 mg/kg” value is 4.8, the “LONGEST UNINTERRUPTED SLEEP BOUT 10 mg/kg” value is 8.6 and the “LONGEST UNINTERRUPTED SLEEP BOUT 30 mg/kg” value turned out to be 14.3.
Consider `O=C(O)C1(CN2CCN(c3noc4ccccc34)CC2)CC1` [Compound 5], for which, in the experiment on male Wistar rats (setting [2]), the “MAXIMUM NREM SLEEP CUMULATION 3 mg/kg” value came out at 40, the “MAXIMUM NREM SLEEP CUMULATION 10 mg/kg” value is 37 and the “MAXIMUM NREM SLEEP CUMULATION 30 mg/kg” value worked out at 45. Further, in the experiment with male Wistar rats (setting [3]), the “LONGEST UNINTERRUPTED SLEEP BOUT 3 mg/kg” value was 3.0, the “LONGEST UNINTERRUPTED SLEEP BOUT 10 mg/kg” value is on record as 5.1 and the “LONGEST UNINTERRUPTED SLEEP BOUT 30 mg/kg” value amounted to 7.2.
For `O=C(O)CCCN1CCN(c2noc3ccccc23)CC1` [Compound 10], in the experiment on male Wistar rats (setting [2]), the “MAXIMUM NREM SLEEP CUMULATION 10 mg/kg” value stood at 22 and the “MAXIMUM NREM SLEEP CUMULATION 30 mg/kg” value was 24. In the experiment with male Wistar rats (setting [3]), the “LONGEST UNINTERRUPTED SLEEP BOUT 10 mg/kg” value was 10.7 and the “LONGEST UNINTERRUPTED SLEEP BOUT 30 mg/kg” value is on record as 9.9.
As to `Cc1ccc2onc(N3CCN(CCCC(=O)O)CC3)c2c1` [Compound 13], the “MAXIMUM NREM SLEEP CUMULATION 10 mg/kg” value with male Wistar rats (setting [2]) amounted to 7. The “LONGEST UNINTERRUPTED SLEEP BOUT 10 mg/kg” value in the experiment with male Wistar rats (setting [3]) was −5.6.
With `O=C(O)CCN1CCN(c2noc3ccccc23)CC1` [Compound 4], the “MAXIMUM NREM SLEEP CUMULATION 10 mg/kg” value with male Wistar rats (setting [2]) was found to be 27. Besides, the “LONGEST UNINTERRUPTED SLEEP BOUT 10 mg/kg” value with male Wistar rats (setting [3]) is given as 9.9.
The corresponding values for `COc1ccc2onc(N3CCN(CC(C)(C)C(=O)O)CC3)c2c1` [Compound 7] are 6 and −2.5.
The corresponding values for `Cc1ccc2onc(N3CCN(CCC(=O)O)CC3)c2c1` [Compound 12] are 16 and 7.3.
